Experimental data taken from PubChem BioAssay (NCI).
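Growth conditions: 96-well plates. Treatment: test compound, 48 hours, 5 concentrations. Analysis: linear interpolation between bracketing concentrations; unreached endpoints set to highest concentration. GI50: concentration for 50% inhibition of growth. TGI marks complete inhibition of growth.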

Tests used:
Assay in all cases: inhibition of tumour cell growth, NCI panel, 48 h
786-0 renal = system: 786-0 renal
A498 renal = system: A498 renal
A549 NSCLC = system: A549 NSCLC
ACHN renal = system: ACHN renal
BT-549 breast = system: BT-549 breast
CAKI-1 renal = system: CAKI-1 renal
CCRF-CEM leukemia = system: CCRF-CEM leukemia
COLO 205 colon = system: COLO 205 colon
DU-145 prostate = system: DU-145 prostate
EKVX NSCLC = system: EKVX NSCLC
HCC-2998 colon = system: HCC-2998 colon
HCT-116 colon = system: HCT-116 colon
HCT-15 colon = system: HCT-15 colon
HOP-62 NSCLC = system: HOP-62 NSCLC
HOP-92 NSCLC = system: HOP-92 NSCLC
HS 578T breast = system: HS 578T breast
HT29 colon = system: HT29 colon
IGROV1 ovarian = system: IGROV1 ovarian
K-562 leukemia = system: K-562 leukemia
KM12 colon = system: KM12 colon
LOX IMVI melanoma = system: LOX IMVI melanoma
M14 melanoma = system: M14 melanoma
MALME-3M melanoma = system: MALME-3M melanoma
MCF7 breast = system: MCF7 breast
MDA-MB-231 breast = system: MDA-MB-231 breast
MOLT-4 leukemia = system: MOLT-4 leukemia
NCI-H226 lung = system: NCI-H226 lung
NCI-H23 lung = system: NCI-H23 lung
NCI-H460 lung = system: NCI-H460 lung
NCI-H522 lung = system: NCI-H522 lung
NCI/ADR-RES ovarian = system: NCI/ADR-RES ovarian
OVCAR-3 ovarian = system: OVCAR-3 ovarian
OVCAR-4 ovarian = system: OVCAR-4 ovarian
OVCAR-5 ovarian = system: OVCAR-5 ovarian
OVCAR-8 ovarian = system: OVCAR-8 ovarian
PC-3 prostate = system: PC-3 prostate
RPMI-8226 leukemia = system: RPMI-8226 leukemia
RXF 393 renal = system: RXF 393 renal
SF-268 CNS = system: SF-268 CNS
SF-295 CNS = system: SF-295 CNS
SF-539 CNS = system: SF-539 CNS
SK-MEL-2 melanoma = system: SK-MEL-2 melanoma
SK-MEL-28 melanoma = system: SK-MEL-28 melanoma
SK-MEL-5 melanoma = system: SK-MEL-5 melanoma
SK-OV-3 ovarian = system: SK-OV-3 ovarian
SN12C renal = system: SN12C renal
SNB-19 CNS = system: SNB-19 CNS
SNB-75 CNS = system: SNB-75 CNS
SR leukemia = system: SR leukemia
SW-620 colon = system: SW-620 colon
T-47D breast = system: T-47D breast
TK-10 renal = system: TK-10 renal
U251 CNS = system: U251 CNS
UACC-257 melanoma = system: UACC-257 melanoma
UACC-62 melanoma = system: UACC-62 melanoma
UO-31 renal = system: UO-31 renal

SMILES: O=C(Nc1nc(-c2ccc(Cl)cc2)cs1)c1cc(-c2ccc(Br)cc2)nc2ccc(Cl)cc12
- GI50 (786-0 renal): 3.53 µM
- TGI (786-0 renal): 67.1 µM
- GI50 (A498 renal): 30.7 µM
- TGI (A498 renal): > 100 µM
- GI50 (A549 NSCLC): 43.8 µM
- TGI (A549 NSCLC): > 100 µM
- GI50 (ACHN renal): 5.18 µM
- TGI (ACHN renal): > 100 µM
- GI50 (BT-549 breast): 2.47 µM
- TGI (BT-549 breast): 7.89 µM
- GI50 (CAKI-1 renal): 20.5 µM
- TGI (CAKI-1 renal): > 100 µM
- GI50 (CCRF-CEM leukemia): 4.06 µM
- TGI (CCRF-CEM leukemia): > 100 µM
- GI50 (COLO 205 colon): 26.9 µM
- TGI (COLO 205 colon): > 100 µM
- GI50 (DU-145 prostate): 3.67 µM
- TGI (DU-145 prostate): > 100 µM
- GI50 (EKVX NSCLC): 15.3 µM
- TGI (EKVX NSCLC): > 100 µM
- GI50 (HCC-2998 colon): 19.4 µM
- TGI (HCC-2998 colon): > 100 µM
- GI50 (HCT-116 colon): 0.876 µM
- TGI (HCT-116 colon): 11.3 µM
- GI50 (HCT-15 colon): 3.12 µM
- TGI (HCT-15 colon): 26.6 µM
- GI50 (HOP-62 NSCLC): 4.66 µM
- TGI (HOP-62 NSCLC): > 100 µM
- GI50 (HOP-92 NSCLC): 2.98 µM
- TGI (HOP-92 NSCLC): 22.2 µM
- GI50 (HS 578T breast): 2.71 µM
- TGI (HS 578T breast): 18.2 µM
- GI50 (HT29 colon): 3.89 µM
- TGI (HT29 colon): > 100 µM
- GI50 (IGROV1 ovarian): 2.7 µM
- TGI (IGROV1 ovarian): > 100 µM
- GI50 (K-562 leukemia): 3.36 µM
- TGI (K-562 leukemia): > 100 µM
- GI50 (KM12 colon): 3.35 µM
- TGI (KM12 colon): 27.1 µM
- GI50 (LOX IMVI melanoma): 2.77 µM
- TGI (LOX IMVI melanoma): > 100 µM
- GI50 (M14 melanoma): 2.16 µM
- TGI (M14 melanoma): 11.2 µM
- GI50 (MALME-3M melanoma): 5.59 µM
- TGI (MALME-3M melanoma): 76.5 µM
- GI50 (MCF7 breast): 2.62 µM
- TGI (MCF7 breast): > 100 µM
- GI50 (MDA-MB-231 breast): 3.02 µM
- TGI (MDA-MB-231 breast): 15.3 µM
- GI50 (MOLT-4 leukemia): 3.77 µM
- TGI (MOLT-4 leukemia): > 100 µM
- GI50 (NCI-H226 lung): 2.98 µM
- TGI (NCI-H226 lung): 15.4 µM
- GI50 (NCI-H23 lung): 5.64 µM
- TGI (NCI-H23 lung): > 100 µM
- GI50 (NCI-H460 lung): 32.7 µM
- TGI (NCI-H460 lung): > 100 µM
- GI50 (NCI-H522 lung): 7.87 µM
- TGI (NCI-H522 lung): > 100 µM
- GI50 (NCI/ADR-RES ovarian): 3.97 µM
- TGI (NCI/ADR-RES ovarian): > 100 µM
- GI50 (OVCAR-3 ovarian): 2.86 µM
- TGI (OVCAR-3 ovarian): 9.19 µM
- GI50 (OVCAR-4 ovarian): 7.1 µM
- TGI (OVCAR-4 ovarian): > 100 µM
- GI50 (OVCAR-5 ovarian): 28.6 µM
- TGI (OVCAR-5 ovarian): > 100 µM
- GI50 (OVCAR-8 ovarian): 3.94 µM
- TGI (OVCAR-8 ovarian): 62.4 µM
- GI50 (PC-3 prostate): 4.16 µM
- TGI (PC-3 prostate): > 100 µM
- GI50 (RPMI-8226 leukemia): 3.73 µM
- TGI (RPMI-8226 leukemia): > 100 µM
- GI50 (RXF 393 renal): 19.1 µM
- TGI (RXF 393 renal): 89.7 µM
- GI50 (SF-268 CNS): 3.86 µM
- TGI (SF-268 CNS): 36.4 µM
- GI50 (SF-295 CNS): 4.42 µM
- TGI (SF-295 CNS): 58.6 µM
- GI50 (SF-539 CNS): 2.78 µM
- TGI (SF-539 CNS): 10.4 µM
- GI50 (SK-MEL-2 melanoma): 6.69 µM
- TGI (SK-MEL-2 melanoma): > 100 µM
- GI50 (SK-MEL-28 melanoma): 5.62 µM
- TGI (SK-MEL-28 melanoma): > 100 µM
- GI50 (SK-MEL-5 melanoma): 3.28 µM
- TGI (SK-MEL-5 melanoma): 13.1 µM
- GI50 (SK-OV-3 ovarian): 34.2 µM
- TGI (SK-OV-3 ovarian): > 100 µM
- GI50 (SN12C renal): 4.78 µM
- TGI (SN12C renal): 54.6 µM
- GI50 (SNB-19 CNS): 5.22 µM
- TGI (SNB-19 CNS): > 100 µM
- GI50 (SNB-75 CNS): 3.63 µM
- TGI (SNB-75 CNS): > 100 µM
- GI50 (SR leukemia): 3.72 µM
- TGI (SR leukemia): > 100 µM
- GI50 (SW-620 colon): 4.35 µM
- TGI (SW-620 colon): > 100 µM
- GI50 (T-47D breast): 16.1 µM
- TGI (T-47D breast): > 100 µM
- GI50 (TK-10 renal): 29.2 µM
- TGI (TK-10 renal): > 100 µM
- GI50 (U251 CNS): 4.39 µM
- TGI (U251 CNS): 37.8 µM
- GI50 (UACC-257 melanoma): 24.1 µM
- TGI (UACC-257 melanoma): > 100 µM
- GI50 (UACC-62 melanoma): 3.49 µM
- TGI (UACC-62 melanoma): 22.6 µM
- GI50 (UO-31 renal): 3.45 µM
- TGI (UO-31 renal): > 100 µM
